The target in this assay is cloned human glucagon receptor (Homo sapiens, UniProt P47871). Description: Glucagon Receptor (hGlucR) Binding Assay.
cloned human glucagon receptor, sequence (P47871 26-477): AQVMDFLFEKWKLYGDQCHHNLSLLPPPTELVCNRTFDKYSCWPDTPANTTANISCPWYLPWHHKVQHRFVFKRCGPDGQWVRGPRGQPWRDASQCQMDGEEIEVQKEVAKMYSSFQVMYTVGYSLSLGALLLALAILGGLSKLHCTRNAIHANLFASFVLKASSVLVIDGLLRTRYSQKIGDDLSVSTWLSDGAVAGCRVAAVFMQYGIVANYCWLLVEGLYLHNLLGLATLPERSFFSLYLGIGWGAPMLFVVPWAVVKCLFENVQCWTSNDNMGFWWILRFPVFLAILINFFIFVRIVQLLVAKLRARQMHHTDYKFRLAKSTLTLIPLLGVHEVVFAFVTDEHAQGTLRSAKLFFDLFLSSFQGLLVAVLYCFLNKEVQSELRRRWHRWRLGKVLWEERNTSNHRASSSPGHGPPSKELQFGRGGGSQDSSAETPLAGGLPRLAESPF

Protocol: This plasmid DNA is transfected into 293 HEK cells and selected with 200 μg/mL Hygromycin.
Crude plasma membranes are prepared using cells from suspension culture. The cells are lysed on ice in hypotonic buffer containing 25 mM Tris HCL, pH 7.5, 1 mM MgCl2, DNAse1, 20 u/mL, and Roche Complete Inhibitors-without EDTA. The cell suspension is homogenized with a glass dounce homogenizer using a Teflon pestle for 25 strokes. The homogenate is centrifuged at 4 degrees C. at 1800×g for 15 mins. The supernate is collected and the pellet is resuspended in hypotonic buffer and rehomogenized. The mixture is centrifuged at 1800×g for 15 mins. The second supernate is combined with the first supernate. The combined supernates are recentrifuged at 1800×g for 15 mins to clarify. The clarified supernate is transferred to high speed tubes and centrifuged at 25000×g for 30 minutes at 4 degrees C. The membrane pellet is resuspended in homogenization buffer and stored as frozen aliquots at −80 degree C. freezer until needed.
The specific activity is 2200 Ci/mmol.
The binding buffer contains 25 mM Hepes, pH 7.4, 2.5 mM CaCl2, 1 mM MgCl2, 0.1% fatty acid free BSA, (ICN), 0.003% tween-20, and Roche Complete Inhibitors without EDTA. […] Test compounds are dissolved in DMSO and serially diluted in DMSO. […] Plates are read with a MicroBeta after 14 hours of settling time at room temp. […]

As usually defined, the Ki is the equilibrium dissociation constant of an inhibitor or competing ligand from its target. For `CC(C)CC(Nc1ccc(-c2ccc(C(C)(C)C)cc2)cc1)c1ccc(C(=O)NCCC(=O)O)cc1` (centres unmarked), the Ki stood at 40 nM. That is a double-digit nanomolar value. `CCCCCC(Nc1ccc(-c2ccc(C#N)cc2)cc1)c1ccc(C(=O)NCCC(=O)O)cc1` (centres unmarked) had an inhibition constant (Ki) of 173 nM. This Ki is about 4.3-fold higher than that of the molecule before.

(Values after patent US7696248B2 (Eli Lilly and Company, priority 2005, dated 2010).)
